What all share (assay): microbe, parasite or virus in culture
Holding throughout (assay type): cell-based, Hepatitis C virus (HCV)

In one assay the test system is HCV replicon 1AQ30D. The note with it: Replicon Assay B.
The next assay relates to HCV replicon 1B. Particulars: HCV replicon 1B, Replicon Assay B. (Replicon systems follow genome replication, usually without infectious particles.)
The next assay concerns HCV replicon 1AY93H. The gist of the method:
(§1)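 HCV replicon RNA levels were quantified by TaqMan RT-PCR after 3-day compound exposure (0.5% DMSO, 5% FBS). Cyclophilin RNA, co-amplified in the same reaction, served as endogenous control; Ct values were converted to RNA amounts using linear regression standard curves.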

For the next assay, the system named is HCV replicon 2B. Particulars: Replicon Assay A. The gist of the method: as §1
A further assay has as its system HCV replicon 1A. Particulars: HCV replicon 1A, Replicon Assay A. In short, it runs like this: as §1
Setting [1] is: Hepatitis C virus, read-out: 1A Q30D IC50, HCV replicon 1A Q30D.
Setting [2] is: read-out: 1A Y93H IC50; HCV replicon 1A Y93H; Replicon Assay A.
Setting [3] is: read-out: 2B IC50, HCV replicon 2B.
[4] abbreviates: read-out: 1A Q30D IC50, HCV replicon 1A Q30D.
Where [5] appears, read: HCV replicon 1A Q30D, read-out: 1A Q30D IC50.
Where [6] appears, read: HCV replicon 1A Y93H; Replicon Assay A; read-out: 1A Y93H IC50.
The mark [7] stands for this setting: HCV replicon 2B, read-out: 2B IC50.

Molecules are shown by their SMILES. Read-outs that look alike come from different tables or passages of the source.

On to `COC(=O)N[C@H](C(=O)N1CCC[C@H]1c1ncc(-c2cc(F)c3c(c2)OC(c2cc4ccccc4s2)n2c-3cc3cc(-c4cnc([C@@H]5C[C@H]6C[C@H]6N5C(=O)[C@@H](NC(=O)OC)C(C)C)[nH]4)ccc32)[nH]1)C(C)C` (single isomer, unassigned) [Compound 615], for which the IC50 with HCV replicon 1AQ30D (setting [1]) was 844 pM; with HCV replicon 1B (Hepatitis C virus), 1.9 pM; with HCV replicon 1AY93H (setting [2]), 45 pM; in the assay with HCV replicon 2B (setting [3]) it was 1080 pM; in the assay with HCV replicon 1A, 2.3 pM.

For `COC(=O)N[C@H](C(=O)N1CCC[C@H]1c1ncc(-c2cc(F)c3c(c2)OC(c2cc4ccccc4s2)n2c-3cc3cc(-c4cnc([C@@H]5C[C@H]6C[C@H]6N5C(=O)[C@@H](NC(=O)OC)C(C)C)[nH]4)ccc32)[nH]1)C(C)C` (single isomer, unassigned) [Compound 616], the IC50 in the assay on HCV replicon 1AQ30D (setting [4]) was 538 pM; in the assay with HCV replicon 1B, 2 pM; in the assay on HCV replicon 1AY93H (setting [2]) it was 20.5 pM; in the assay with HCV replicon 2B (setting [3]) it was 266 pM; in the assay with HCV replicon 1A, 2.9 pM.

For the compound `COC(=O)N[C@H](C(=O)N1CCC[C@H]1c1ncc(-c2cc(F)c3c(c2)OC(c2cc4c(s2)CCC4)n2c-3cc3cc(-c4cnc([C@@H]5CCCN5C(=O)[C@@H](NC(=O)OC)C5CCOCC5)[nH]4)ccc32)[nH]1)C(C)C` (single isomer, unassigned) [Compound 620], the IC50 in the assay with HCV replicon 1AQ30D (setting [1]) came to 114 pM; in the assay on HCV replicon 1B (Hepatitis C virus), 1.9 pM; with HCV replicon 1AY93H (setting [2]), 5.9 pM; in the assay on HCV replicon 2B (setting [3]) it was 10.2 pM; with HCV replicon 1A (Hepatitis C virus) it was 2.3 pM.

With `COC(=O)N[C@H](C(=O)N1CCC[C@H]1c1ncc(-c2cc(F)c3c(c2)OC(c2cc4c(s2)CCC4)n2c-3cc3cc(-c4cnc([C@@H]5CCCN5C(=O)[C@@H](NC(=O)OC)C5CCOCC5)[nH]4)ccc32)[nH]1)C(C)C` (single isomer, unassigned) [Compound 622], the IC50 in the assay with HCV replicon 1AQ30D (setting [4]) was 59.4 pM; in the assay with HCV replicon 1B, 2.2 pM; with HCV replicon 1AY93H (setting [2]), 4.4 pM; with HCV replicon 2B (setting [3]), 6.8 pM; in the assay on HCV replicon 1A it was 2.4 pM.

Consider `COC(=O)N[C@H](C(=O)N1C[C@H](F)C[C@H]1c1ncc(-c2ccc3c(c2)cc2n3C(c3cc4ccccc4s3)Oc3cc(-c4cnc([C@@H]5CCCN5C(=O)[C@@H](NC(=O)OC)C5CCOCC5)[nH]4)ccc3-2)[nH]1)C(C)C` (single isomer, unassigned) [Compound 625], for which the IC50 in the assay with HCV replicon 1AQ30D (setting [1]) stood at 359 pM; in the assay on HCV replicon 1B (Hepatitis C virus), 3.1 pM; in the assay on HCV replicon 1AY93H (setting [2]), 4.9 pM; with HCV replicon 2B (setting [3]), 146 pM; in the assay with HCV replicon 1A, 1.9 pM.

Take `CCc1ccc(C2Oc3cc(-c4cnc([C@@H]5CCCN5C(=O)[C@@H](NC(=O)OC)C(C)C)[nH]4)ccc3-c3c(F)c4cc(-c5cnc([C@@H]6CCCN6C(=O)C(NC(=O)OC)C6C[C@@H](C)O[C@@H](C)C6)[nH]5)ccc4n32)s1` (single isomer, unassigned) [Compound 634]: the IC50 with HCV replicon 1AQ30D (setting [4]) stood at 238 pM; with HCV replicon 1B (Hepatitis C virus) it was 1.5 pM; in the assay with HCV replicon 1AY93H (setting [2]) it was 14.9 pM; in the assay on HCV replicon 2B (setting [3]) it was 27 pM; in the assay on HCV replicon 1A, 2.3 pM.

Regarding `CCc1ccc(C2Oc3cc(-c4cnc([C@@H]5CCCN5C(=O)[C@@H](NC(=O)OC)C(C)C)[nH]4)ccc3-c3c(F)c4cc(-c5cnc([C@@H]6CCCN6C(=O)C(NC(=O)OC)C6C[C@@H](C)O[C@@H](C)C6)[nH]5)ccc4n32)s1` (single isomer, unassigned) [Compound 635], the IC50 amounted to 744 pM with HCV replicon 1AQ30D (setting [4]); 2.4 pM in the assay on HCV replicon 1B; 27.2 pM in the assay with HCV replicon 1AY93H (setting [2]); 22.5 pM in the assay on HCV replicon 2B (setting [3]); 2.4 pM in the assay with HCV replicon 1A.

`COC(=O)NC(C(=O)N1CCC[C@H]1c1ncc(-c2ccc3c(c2)cc2n3C(c3cc4ccccc4s3)Oc3cc(-c4cnc([C@@H]5CCCN5C(=O)[C@@H](NC(=O)OC)C(C)C)[nH]4)cc(F)c3-2)[nH]1)C1C[C@@H](C)O[C@@H](C)C1` (single isomer, unassigned) [Compound 640]: the IC50 with HCV replicon 1AQ30D (setting [1]) is 271 pM; in the assay on HCV replicon 1B (Hepatitis C virus), 1.1 pM; in the assay with HCV replicon 1AY93H (setting [2]) it was 10.6 pM; in the assay on HCV replicon 2B (setting [3]) it was 25.3 pM; with HCV replicon 1A (Hepatitis C virus), 1.9 pM.

Turning to `COC(=O)NC(C(=O)N1CCC[C@H]1c1ncc(-c2ccc3c(c2)cc2n3C(c3cc4ccccc4s3)Oc3cc(-c4cnc([C@@H]5CCCN5C(=O)[C@@H](NC(=O)OC)C(C)C)[nH]4)cc(F)c3-2)[nH]1)C1C[C@@H](C)O[C@@H](C)C1` (single isomer, unassigned) [Compound 641], the IC50 with HCV replicon 1AQ30D (setting [4]) is 306 pM; in the assay with HCV replicon 1B it was 1.1 pM; with HCV replicon 1AY93H (setting [2]) it was 7.9 pM; in the assay with HCV replicon 2B (setting [3]), 24.4 pM; in the assay on HCV replicon 1A, 3.3 pM.

On to `COC(=O)NC(C(=O)N1[C@@H]2C[C@@H]2C[C@H]1c1ncc(-c2ccc3c(c2)c(F)c2n3C(c3ccc(C4CC4)s3)Oc3cc(-c4cnc([C@@H]5CCCN5C(=O)[C@@H](NC(=O)OC)C(C)C)[nH]4)ccc3-2)[nH]1)C1C[C@@H](C)O[C@@H](C)C1` (single isomer, unassigned) [Compound 644], for which the IC50 was 88.9 pM with HCV replicon 1AQ30D (setting [4]); 1.3 pM with HCV replicon 1B (Hepatitis C virus); 5 pM in the assay on HCV replicon 1AY93H (setting [2]); 27.2 pM in the assay on HCV replicon 2B (setting [3]); 2.57 pM in the assay on HCV replicon 1A.

Take `COC(=O)NC(C(=O)N1[C@@H]2C[C@@H]2C[C@H]1c1ncc(-c2ccc3c(c2)c(F)c2n3C(c3ccc(C4CC4)s3)Oc3cc(-c4cnc([C@@H]5CCCN5C(=O)[C@@H](NC(=O)OC)C(C)C)[nH]4)ccc3-2)[nH]1)C1C[C@@H](C)O[C@@H](C)C1` (single isomer, unassigned) [Compound 645]: the IC50 with HCV replicon 1AQ30D (setting [4]) was determined as 250 pM; in the assay with HCV replicon 1B it was 2.4 pM; in the assay with HCV replicon 1AY93H (setting [2]), 22.2 pM; in the assay with HCV replicon 2B (setting [3]), 68.6 pM; in the assay on HCV replicon 1A, 2.6 pM.

Take `COC(=O)NC(C(=O)N1CCC[C@H]1c1ncc(-c2ccc3c(c2)cc2n3C(c3ccc(C(F)(F)F)s3)Oc3cc(-c4cnc([C@@H]5CCCN5C(=O)[C@@H](NC(=O)OC)C(C)C)[nH]4)cc(F)c3-2)[nH]1)C1C[C@@H](C)O[C@@H](C)C1` (single isomer, unassigned) [Compound 649]: the IC50 with HCV replicon 1AQ30D (setting [5]) is 410 pM; in the assay with HCV replicon 1B it was 1.2 pM; with HCV replicon 1AY93H (setting [6]), 240 pM; in the assay with HCV replicon 2B (setting [7]), 253 pM; in the assay with HCV replicon 1A, 2 pM.

Take `COC(=O)N[C@H](C(=O)N1CCC[C@H]1c1ncc(-c2cc(F)c3c(c2)OC(c2ccc(C4CC4)s2)n2c-3cc3cc(-c4cnc([C@@H]5C[C@H]6C[C@H]6N5C(=O)[C@@H](NC(=O)OC)C5CCOCC5)[nH]4)ccc32)[nH]1)C(C)C` (single isomer, unassigned) [Compound 652]: the IC50 stood at 327 pM with HCV replicon 1AQ30D (setting [5]); 1.7 pM in the assay on HCV replicon 1B; 33.1 pM in the assay with HCV replicon 1AY93H (setting [6]); 53.2 pM in the assay with HCV replicon 2B (setting [7]); 1.2 pM in the assay on HCV replicon 1A.

As to `COC(=O)N[C@H](C(=O)N1CCC[C@H]1c1ncc(-c2cc(F)c3c(c2)OC(c2ccc(C(F)(F)F)s2)n2c-3cc3cc(-c4cnc([C@@H]5CCCN5C(=O)[C@@H](NC(=O)OC)C5CCOCC5)[nH]4)ccc32)[nH]1)C(C)C` (single isomer, unassigned) [Compound 654], the IC50 in the assay on HCV replicon 1AQ30D (setting [1]) worked out at 83.9 pM; with HCV replicon 1B (Hepatitis C virus), 2 pM; with HCV replicon 1AY93H (setting [2]) it was 9.5 pM; in the assay with HCV replicon 2B (setting [3]), 6.1 pM; in the assay on HCV replicon 1A (Hepatitis C virus), 1.1 pM.

Regarding `COC(=O)NC(C(=O)N1CCC[C@H]1c1ncc(-c2ccc3c(c2)cc2n3C(c3ccc(C4CCCC4)s3)Oc3cc(-c4cnc([C@@H]5CCCN5C(=O)[C@@H](NC(=O)OC)C(C)C)[nH]4)cc(F)c3-2)[nH]1)C1C[C@@H](C)O[C@@H](C)C1` (single isomer, unassigned) [Compound 656], the IC50 in the assay with HCV replicon 1AQ30D (setting [4]) stood at 48.1 pM; with HCV replicon 1B, 2.8 pM; with HCV replicon 1AY93H (setting [2]) it was 2.5 pM; with HCV replicon 2B (setting [3]), 2.6 pM; with HCV replicon 1A it was 1.5 pM.

Turning to `COC(=O)NC(C(=O)N1CCC[C@H]1c1ncc(-c2ccc3c(c2)cc2n3C(c3ccc(C4CCCC4)s3)Oc3cc(-c4cnc([C@@H]5CCCN5C(=O)[C@@H](NC(=O)OC)C(C)C)[nH]4)cc(F)c3-2)[nH]1)C1C[C@@H](C)O[C@@H](C)C1` (single isomer, unassigned) [Compound 657], the IC50 turned out to be 1140 pM in the assay on HCV replicon 1AQ30D (setting [4]); 3.7 pM in the assay on HCV replicon 1B; 105 pM with HCV replicon 1AY93H (setting [2]); 94.1 pM in the assay with HCV replicon 2B (setting [3]); 2.5 pM with HCV replicon 1A.

For the compound `COC(=O)NC(C(=O)N1CCC[C@H]1c1ncc(-c2ccc3c(c2)cc2n3C(c3ccc(C4CCCC4)s3)Oc3cc(-c4cnc([C@@H]5CCCN5C(=O)[C@@H](NC(=O)OC)C(C)C)[nH]4)cc(F)c3-2)[nH]1)C1C[C@@H](C)O[C@@H](C)C1` (single isomer, unassigned) [Compound 658], the IC50 with HCV replicon 1AQ30D (setting [4]) came to 64.3 pM; with HCV replicon 1B it was 8.4 pM; in the assay on HCV replicon 1AY93H (setting [2]), 8.9 pM; in the assay on HCV replicon 2B (setting [3]), 9.8 pM; in the assay on HCV replicon 1A, 3.2 pM.

With `COC(=O)NC(C(=O)N1[C@@H]2C[C@@H]2C[C@H]1c1ncc(-c2ccc3c(c2)cc2n3C(c3cc4c(s3)CCC4)Oc3cc(-c4cnc([C@@H]5CCCN5C(=O)[C@@H](NC(=O)OC)C(C)C)[nH]4)cc(F)c3-2)[nH]1)C(C)C` (single isomer, unassigned) [Compound 659], the IC50 in the assay on HCV replicon 1AQ30D (setting [1]) came out at 535 pM; in the assay on HCV replicon 1B (Hepatitis C virus), 1.91 pM; with HCV replicon 1AY93H (setting [2]), 14.6 pM; in the assay on HCV replicon 2B (Hepatitis C virus, read-out: 2B IC50, HCV replicon 2B) it was 122 pM; in the assay with HCV replicon 1A (Hepatitis C virus), 3.5 pM.

Usually IC50 stands for the midpoint of a concentration-inhibition curve.

The values are drawn from patent US20160257697A1, “THIOPHENE-SUBSTITUTED TETRACYCLIC COMPOUNDS AND METHODS OFUSE THEREOF FOR THE TREATMENT OF VIRAL DISEASES” (priority 2013, published 2016).
